# Results: US9696306B2, “Methods of reducing levels of tau” (The Trustees of Columbia University in the City of New York, priority 2011, dated 2017)
# Key:
# Type in all cases: cell-based, mouse
# [1] = system: sAPPα; experiment: Immunoprecipitation/Western blot of secreted sAPPα from conditioned medium of Tg2576 ES cell derived neurons
# Excerpt: (§1) The reliable detection of proteolytic derivatives of APP, including AP, is critical for a physiologically relevant cell based AD model. It was established that ES cell-derived pyramidal neurons express the major proteolytic enzymes mediating APP processing, β-site APP cleaving enzyme (BACE1) and presenilin 1 (PS1) (FIG. 2a). Endogenous APP, BACE1 and PS1 were abundantly detected in ES cell-derived pyramidal neurons at DIV 7, 14, 21. APP and BACE1 were not detected in ES cells, but PS1 was detectable consistent with it's described role in development (Wong, P. C. et al. Nature 387, 288-292 (1997)). […] In Tg2576 ES cell derived neurons, APP cleavage products were readily detectable. C-terminal APP fragments (CTFs) were detected in the neuronal lysate by Western blot analysis (FIG. 2b). Both human β- and α-secretase-derived secreted soluble APP (sAPPβ and sAPPα, respectively) were detected using immunoprecipitation of conditioned medium with sβsw and Aβ levels were detected in conditioned media using a human Aβ specific ELISA (FIG. 2b-e). […] Identical results were seen when neurons were infected with an APPsw Lenti virus and APP processing was analyzed (FIG. 6a-c). […]
# (§2) Day 12-30 neurons were infected with a lentivirus carrying the Swedish variant of human APP (pLenti6/hAPPsw). […] Samples were separated using the NuPAGE gel system and Aβ peptides detected by quantitative Western blotting with 6E10. […]
# [2] = system: Aβ42; experiment: Aβ42 detection by human specific ELISA in conditioned medium of Tg2576 mES cell derived neurons
# Excerpt: (§3) The reliable detection of proteolytic derivatives of APP, including AP, is critical for a physiologically relevant cell based AD model. It was established that ES cell-derived pyramidal neurons express the major proteolytic enzymes mediating APP processing, β-site APP cleaving enzyme (BACE1) and presenilin 1 (PS1) (FIG. 2a). Endogenous APP, BACE1 and PS1 were abundantly detected in ES cell-derived pyramidal neurons at DIV 7, 14, 21. APP and BACE1 were not detected in ES cells, but PS1 was detectable consistent with it's described role in development (Wong, P. C. et al. Nature 387, 288-292 (1997)). To achieve robust and reproducible neuronal expression of human APP, ES cells from the inner cell mass of blastocysts were isolated from a well characterized mouse model of AD, Tg2576. Tg2576 mice express human APP, harboring the Swedish mutation (APPsw) under the control of hamster PrP promoter (Hsiao, K. et al. Science 274, 99-102 (1996)). […] In Tg2576 ES cell derived neurons, APP cleavage products were readily detectable. C-terminal APP fragments (CTFs) were detected in the neuronal lysate by Western blot analysis (FIG. 2b). Both human β- and α-secretase-derived secreted soluble APP (sAPPβ and sAPPα, respectively) were detected using immunoprecipitation of conditioned medium with sβsw and Aβ levels were detected in conditioned media using a human Aβ specific ELISA (FIG. 2b-e). […] Consistent with previous studies in cell models and mouse brain, CTFs resulting from APP cleavage, accumulated in response to γ-secretase inhibitor treatment (FIG. 2b). Identical results were seen when neurons were infected with an APPsw Lenti virus and APP processing was analyzed (FIG. 6a-c). […] Thus, these neurons are suitable for lentiviral mediated genetic manipulation studies.
# (§4) To accommodate high-throughput screening, Aβ detection assays using the Tg2576 mES cell derived neurons were miniaturized for a 96 well platform. […] It was determined that the optimal cell density of 1.5×10^5 cells/cm^2 maximized the cell viability signal. […]
# (§5) Day 12-30 neurons were infected with a lentivirus carrying the Swedish variant of human APP (pLenti6/hAPPsw). […] The levels of Aβ42 and Aβ40 in conditioned media were determined using sandwich ELISA (Invitrogen) according to the manufacturer's protocol. Total Aβ was detected by immunoprecipitating conditioned medium with 6E10 (Covance) or 7N22 (Invitrogen) antibodies overnight at 4° C. Samples were separated using the NuPAGE gel system and Aβ peptides detected by quantitative Western blotting with 6E10. Full-length APP was detected by Western blot analysis using 6E10 (Covance) or polyclonal antibody against the C-terminus of APP (APP-Ctmaxi) (Okada, H., et al. FASEB J. 24, 2783-94 (2010)). […]
# [3] = system: APP-CTF; experiment: Western blot of C-terminal APP fragments (CTFs) in lysate of Tg2576 ES cell derived neurons; settings: neuronal lysate
# Excerpt: as §1, §2
# [4] = system: Aβ40; experiment: Aβ40 detection by human specific ELISA in conditioned medium of Tg2576 mES cell derived neurons
# Excerpt: as §3, §4, §5
# [5] = system: sAPPβ; experiment: Immunoprecipitation/Western blot of secreted sAPPβ from conditioned medium of Tg2576 ES cell derived neurons
# Excerpt: as §1, §2
# [6] = Tg2576 ES cell derived neurons, conditioned medium
# [7] = optimized 96 well platform, 24 hours
smiles,measurement,setting,value
C[C@H](NC(=O)Cc1cc(F)cc(F)c1)C(=O)N[C@H]1N=C(c2ccccc2)c2ccccc2N(C)C1=O [Compound E],level of sAPPα,[1],without affecting
same,secretion of Aβ42,[2]; [6],inhibited
same,IC50,[2]; [7],0.2 nM
same,CTFs resulting from APP cleavage,[3],accumulated
same,secretion of Aβ40,[4]; [6],inhibited
same,IC50,[4]; [7],0.2 nM
same,secretion of sAPPβ,[5],without affecting
